Measured values from patent US11365181B2, “P-phenylenediamine derivative as potassium channel regulator and preparation method and medical application thereof” (Shanghai Zhimeng Biopharma, Inc., priority 2018, dated 2022).
pEC50: −log10 of the molar value. Like-named read-outs stand apart in the source and are kept apart here. Blank lines part the entries; values can stand above or below the compound they belong to.

Columns and labels:
[1] = target: KCNQ2 potassium channel (CHO-KCNQ2 cells) (Homo sapiens (Human), UniProt O43526); test: Activity test of potassium ion channel opener (FDSS/μCELL detection, FluxOR potassium ion channel assay); format: cell-based; details: for pEC50: CHO-KCNQ2 cells, FluxOR fluorescence, FDSS/μCELL; for increase of activity versus 6-membered ring comparison compound (ratio of EC50): 03043 vs compound A, 03058 vs compound B
Method: Activity Test of Potassium Ion Channel Opener (FDSS/ρCELL Detection)
Cell preparation: CHO-KCNQ2 cells were cultured in a 175 cm^2 culture flask, and when the cells was grown to a density of 60-80%, the culture medium was removed, washed with 7 mL PBS (Phosphate Buffered Saline) once, then 3 mL 0.25% Trypsin was added to digest. After the digestion was completed, 7 mL culture medium (90% DMEM/F12+10% FBS+500 μg/mL G418) was added to neutralize, centrifugated for 3 minutes at 800 rpm. The supernatant was aspirated, then 5 mL culture medium was added to resuspend, and then the cells were counted.
Cell plating: The density to 3×10^4/well was adjusted according to the results of cell counting. After standing at room temperature for 30 minutes, the cells were placed in a 37° C. CO2 incubator and incubated overnight for 16-18 hours. The cell density reached about 80%.
Fluorescent dye incubation: The cell culture medium was discarded, 80 μL/well loading buffer was added, and the cells were incubated in dark at room temperature for 60 minutes.
Compound incubation: the loading buffer was discarded, 80 μL/well prepared compound solution was added, incubated at room temperature and in dark for 20 minutes.
Fluorescence data collection: FDSS/μCELL instrument for real-time fluorescence is used for signal recording, wherein excitation wavelength was 480 nm, emission wavelength was 540 nm, and signals were recorded 1 times per second, after baseline was recorded for 10 seconds, the addition of 20 μL/well stimulation buffer was started, and then the signal was continuously record until the end of 180 seconds.
loading buffer: 10 mL/plate, the preparation method was as follows:
Test buffer sample: 100 mL/plate, the preparation method was as follows:
Stimulation buffer: 5 mL/plate, the preparation method was as follows:
The above buffer was from a commercially available kit, the kit name was FluxOR potassium ion channel assay, the manufacturer's brand was Invitrogen, the article number was F10017, the lot number was 913728.
20 mM DMSO compound mother liquor was prepared, 10 μL of 20 mM compound mother liquor was took and added into 20 μL DMSO solution, serially diluted 3 times to 8 intermediate concentrations; then the middle concentration of the compound was took to the test buffer, 200 times dilution to get the final concentration to be tested, 80 μL was took and added to the test plate.
The highest test concentration was 100 μM, followed by […], 33.33, 11.11, 3.70, 1.23, 0.41, 0.137, 0.045 μM, total 8 concentrations. Each concentration 3 replicate holes.
This concentration of DMSO had no effect on the KCNQ2 potassium channel.
Experimental data was analyzed by Excel 2007 and GraphPad Prism 5.0 software, and the ratio of 180 seconds was calculated to calculate the excitement effect. The excitement effect of the compound is calculated by the following formula: […]
Environment: Temperature about 25° C.
Reagent: FluxOR™ Detection Kit (Invitrogen, Cat #[…])
The experimental data in the report might meet the following criteria: Z′ Factor>0.5
2. Determination Results: See Table 1 for Details, where the Smaller EC50 was, the Higher the Activity of the Corresponding Compound was.
References for the above test methods:
(2) Jinfeng Yue et al. Acta Pharmacologica Sinica, 2016, 37:105-110.

[2] = Pharmacokinetic study of compound 03058 in male ICR mice; format: in vivo
Method: Pharmacokinetic Study of Compound 03058
1) Research purpose: To obtain the pharmacokinetic characteristics of compound 03058 in male ICR mice
6 healthy male ICR mice (body weight range of 18-22 grams) were taken, divide them into 2 groups (3 mice/group, and 3 mice/time point), fasted for more than 12 hours (only oral administration group), and administered intravenously(0.05 mg/kg), orally (1 mg/kg), at time points of 0.083 (intravenous administration only), 0.25, 0.5, 1, 2, 4, 6 (only oral administration). After 8 and 24 h, blood were collected by cardiac puncture. At least 0.3 mL of whole blood was transferred to the EDTA-K2 anticoagulation tube, and within half an hour, the plasma was collected by centrifugation (6000 rpm, 8 minutes, 4° C.), and frozen at −20° C. for use. (Compound configuration: 5% DMAC+10% Solutol HS 15+85% Saline was used to prepare a solution having a concentration of iv 0.01 mg/mL and po 0.1 mg/mL).
(§1) Experimental results: According to the blood drug concentration data obtained, the non-compartmental model of WinNonlin® 7.0 software (Pharsight, USA) was used to calculate the pharmacokinetic parameters after administration.

[3] = Pharmacokinetics of compounds 03043 and 03044 in male SD rats; format: in vivo; details: for AUC(0-inf) / AUC(0-t) / Cmax / half-life / Tmax: rat, plasma
From the text: (§2) Study on the Pharmacokinetics of Compounds 03043 and 03044
(§3) 1) Research purpose: To obtain the pharmacokinetic characteristics of compounds 03043 and 03044 in male SD rats and their blood-brain barrier (BBB) penetration
(§4) 15 healthy male SD rats (weight range of 200-250 g) were taken and divided into 3 groups, 3 rats were used for intravenous administration in group 1, 3 rats were used for oral administration in group 2, and 9 rats were used for the determination of cerebral blood ratio after oral administration in group 3 (3 rats/time point). Group 2 and group 3 were fasted for more than 12 hours. Intravenous: 1 mg/kg, oral 5 mg/kg, at time point 0.083 (only group 1), 0.25 (only groups 1 and 2), 0.5 (only groups 1 and 2), 1.2 (only groups 1 and 2). After 4, 8 and 24 h (only group 1 and group 2), blood was collected by jugular vein or cardiac puncture, and at least 0.3 mL of whole blood was collected into an EDTA-K2 anticoagulant tube. Within half an hour, the plasma was collected by centrifugation (6000 revolutions, 8 minutes, 4° C.), frozen at −20° C. for later use. At the same time, brain tissues were collected from group 3 (time points were 1, 4, and 8 h respectively), washed with normal saline, blotted dry with absorbent paper, weighed, and frozen at −20° C. for use. (Compound preparation: 5% DMAC+10% Solutol HS 15+85% Saline was used to prepare a solution having a concentration of iv 0.2 mg/mL and po 0.3 mg/mL).
as §1

[4] = Plasma and brain concentration / cerebral blood ratio (BBB penetration) in male SD rats after single oral administration; format: in vivo; details: rat; for concentration at 1 h / Kp at 1 h: 1 h after single oral administration 5 mg/kg; for concentration at 4 h / Kp at 4 h: 4 h after single oral administration 5 mg/kg; for concentration at 8 h / Kp at 8 h: 8 h after single oral administration 5 mg/kg; for Kp / Kp at 1 h / Kp at 4 h / Kp at 8 h: brain/plasma; for Kp: 5 mg/kg, at each time point (1, 4, 8 h), oral administration
From the text: as §2, §3, §4

[5] = mouse, Intravenous 0.05 mg/kg, plasma
[6] = mouse, po, Gavage 1 mg/kg, plasma
[7] = brain, read-out: Brain concentration
[8] = plasma, read-out: Plasma concentration

KCNQ2 potassium channel (CHO-KCNQ2 cells), sequence (O43526 whole entry): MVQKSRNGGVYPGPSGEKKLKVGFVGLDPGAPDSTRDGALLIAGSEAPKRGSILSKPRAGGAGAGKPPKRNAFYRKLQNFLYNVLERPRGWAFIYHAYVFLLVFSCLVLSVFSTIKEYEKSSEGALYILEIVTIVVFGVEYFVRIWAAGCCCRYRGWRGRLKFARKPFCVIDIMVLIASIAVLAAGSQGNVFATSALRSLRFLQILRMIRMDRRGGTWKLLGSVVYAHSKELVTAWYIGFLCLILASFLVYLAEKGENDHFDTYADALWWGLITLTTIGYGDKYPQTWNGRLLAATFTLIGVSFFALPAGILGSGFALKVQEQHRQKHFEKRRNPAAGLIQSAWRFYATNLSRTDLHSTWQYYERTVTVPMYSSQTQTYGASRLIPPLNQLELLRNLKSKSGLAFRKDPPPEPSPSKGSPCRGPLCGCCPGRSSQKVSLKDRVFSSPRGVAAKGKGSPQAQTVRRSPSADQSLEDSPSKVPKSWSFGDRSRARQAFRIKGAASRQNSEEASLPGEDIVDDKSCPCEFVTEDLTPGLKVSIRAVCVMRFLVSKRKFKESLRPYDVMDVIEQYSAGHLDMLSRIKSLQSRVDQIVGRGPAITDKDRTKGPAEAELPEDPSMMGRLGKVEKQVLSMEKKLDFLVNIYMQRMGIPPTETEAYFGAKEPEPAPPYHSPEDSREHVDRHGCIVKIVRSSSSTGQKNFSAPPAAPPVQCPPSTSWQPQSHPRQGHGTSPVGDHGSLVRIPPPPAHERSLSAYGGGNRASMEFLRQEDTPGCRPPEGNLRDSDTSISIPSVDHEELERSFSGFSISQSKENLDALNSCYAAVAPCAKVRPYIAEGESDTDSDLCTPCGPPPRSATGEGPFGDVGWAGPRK

Structure (SMILES): Cc1cc(N2CCCc3cccnc3C2)cc(C)c1NC(=O)CC(C)(C)C [Compound 03029, N-(2,6-dimethyl-4-(5,6,7,9-tetrahydro-8H-pyrido[2,3-c]azepin-8-yl)phenyl)-3,3-dimethylbutanamide]
- pEC50 [1]: 4.83

Structure (SMILES): Cc1cc(N2CCOc3cc(F)ccc32)cc(C)c1NC(=O)CC(C)(C)C [Compound 03060, N-(2,6-dimethyl-6-(1-tert-butylacetyl)aniline)) 4-(7-fluoro-2,3-dihydro-4H-benzo[1,4] oxazine]
- pEC50 [1]: < 4.00

Structure (SMILES): O=C(Nc1ccc(Cl)nc1)c1ccc(F)cc1 [ZTZ240, reference compound]
- pEC50 [1]: 5.08

Structure (SMILES): Cc1cc(N2CCCOc3cc(F)ccc32)cc(C)c1NC(=O)CC(C)(C)C [Compound 03059, N-(4-(8-fluoro-3,4-dihydrobenzo[b] [1,4]oxazepine-5(2H)-yl)-2,6-dimethylphenyl)-3,3-dimethylbutanamide]
- pEC50 [1]: 6.07

Structure (SMILES): Cc1cc(N2CCCc3sccc3C2)cc(C)c1NC(=O)CC(C)(C)C [Compound 03028, N-(2,6-dimethyl-4-(4,6,7,8-tetrahydro-5H-thieno[3,2-c]azepin-5-yl)phenyl)-3,3-dimethylbutanamide]
- pEC50 [1]: 6.57

Structure (SMILES): Cc1cc(N2CCCc3cscc3C2)cc(C)c1NC(=O)CC(C)(C)C [Compound 03027, N-(2,6-dimethyl-4-(4,6,7,8-tetrahydro-5H-thieno[3,4-c]azepin-5-yl)phenyl)-3,3-dimethylbutanamide]
- pEC50 [1]: 6.83

Structure (SMILES): Cc1cc(N2CCCCc3ncccc32)cc(C)c1NC(=O)CC(C)(C)C [Compound 03037, N-(2,6-Dimethyl-4-(6,7,8,9-tetrahydro-5H-pyrido[32-b]azepin-5-yl)phenyl)-3,3-dimethylbutanamide]
- pEC50 [1]: 5.19

Structure (SMILES): Cc1cc(N2CCc3cc(F)ccc3C2)cc(C)c1NC(=O)CC(C)(C)C [Compound B, reference compound]
- pEC50 [1]: 7.01

Structure (SMILES): Cc1cc(N2CCCCc3sc(Cl)cc32)cc(C)c1NC(=O)CC(C)(C)C [Compound 03049, N-(4-(2-chloro-5,6,7,8-tetrahydro-4H-thieno[3,2-b]azepin-4-yl)-2,6-dimethylphenyl)-3,3-dimethylbutanamide]
- pEC50 [1]: 6.59

Structure (SMILES): Cc1cc2c(s1)CCCCN2c1cc(C)c(NC(=O)CC(C)(C)C)c(C)c1 [Compound 03039, N-(2,6-dimethyl-4-(2-methyl-5,6,7,8-tetrahydro-4H-thieno[3,2-b]azepin-4-yl)phenyl)-3,3-dimethylbutyramide]
- pEC50 [1]: 6.39

Stronger by pEC50 [1], values ahead:

- pEC50 [1]: 7.31
Structure (SMILES): Cc1ccc2c(c1)COCCN2c1cc(C)c(NC(=O)CC(C)(C)C)c(C)c1 [Compound 03066]

- increase of activity versus 6-membered ring comparison compound (ratio of EC50) [1]: 12.25 times
- pEC50 [1]: 8.10
- F ([2]; Gavage 1 mg/kg): 30.47%
- AUC(0-inf) [2, 5]: 7.2 ng·h/mL
- AUC(0-t) [2, 5]: 7.2 ng·h/mL
- Cmax [2, 5]: 15.1 ng/mL
- half-life [2, 5]: 0.73 h
- AUC(0-inf) [2, 6]: 43.6 ng·h/mL
- AUC(0-t) [2, 6]: 43.6 ng·h/mL
- Cmax [2, 6]: 17 ng/mL
- Tmax [2, 6]: 0.5 h
- half-life [2, 6]: 1.05 h
Structure (SMILES): Cc1cc(N2CCOc3cc(F)ccc3C2)cc(C)c1NC(=O)CC(C)(C)C [Compound 03058, N-(4-(8-fluoro-2,3-dihydrobenzo[f][1,4]oxazepin-4(5H)-yl)-2,6-dimethylphenyl)-3,3-dimethylbutanamide]

- pEC50 [1]: 7.15
Structure (SMILES): Cc1cc(N2CCCCc3sccc32)cc(C)c1NC(=O)CC(C)(C)C [Compound 03034, (N-(2,6-dimethyl-6-(1-tert-butylacetyl)aniline))-(5,6,7,8-tetrahydro-4H)-thieno [3,2]azaanthracene]

- pEC50 [1]: 7.06
Structure (SMILES): Cc1cc(N2CCCc3ccsc3C2)cc(C)c1NC(=O)CC(C)(C)C [Compound 03026, N-(2,6-dimethyl-4-(4,5,6,8-tetrahydro-7H-thieno[2,3-c]azepin-7-yl)phenyl)-3,3-dimethylbutanamide]

- increase of activity versus 6-membered ring comparison compound (ratio of EC50) [1]: about 2.83 times
- pEC50 [1]: 7.64
- F ([3]; Gavage 5 mg/kg): 12.79%
- AUC(0-inf) ([3]; Intravenous 1 mg/kg): 964 ng·h/mL
- AUC(0-t) ([3]; Intravenous 1 mg/kg): 957 ng·h/mL
- Cmax ([3]; Intravenous 1 mg/kg): 2040 ng/mL
- half-life ([3]; Intravenous 1 mg/kg): 1.42 h
- AUC(0-inf) ([3]; po, Gavage 5 mg/kg): 1110 ng·h/mL
- AUC(0-t) ([3]; po, Gavage 5 mg/kg): 612 ng·h/mL
- Cmax ([3]; po, Gavage 5 mg/kg): 129 ng/mL
- Tmax ([3]; po, Gavage 5 mg/kg): 0.25 h
- half-life ([3]; po, Gavage 5 mg/kg): 12.3 h
- concentration at 1 h [4, 7]: 67.1 ng/g
- concentration at 4 h [4, 7]: 65.7 ng/g
- concentration at 8 h [4, 7]: 20 ng/g
- Kp [4]: 1 to 2.4
- Kp at 1 h [4]: 2.4
- Kp at 4 h [4]: 1.5
- Kp at 8 h [4]: 1
- concentration at 1 h [4, 8]: 32.2 ng/mL
- concentration at 4 h [4, 8]: 47.9 ng/mL
- concentration at 8 h [4, 8]: 20.8 ng/mL
Structure (SMILES): Cc1cc(N2CCCc3sc(Cl)cc3C2)cc(C)c1NC(=O)CC(C)(C)C [Compound 03043, N-(4-(2-chloro-4,6,7,8-tetrahydro-5H-thieno[3,2-c]azepin-5-yl)-2,6-dimethylphenyl)-3,3-dimethylbutanamide]

- pEC50 [1]: 7.24
- F ([3]; Gavage 5 mg/kg): 13.9%
- AUC(0-inf) ([3]; Intravenous 1 mg/kg): 1060 ng·h/mL
- AUC(0-t) ([3]; Intravenous 1 mg/kg): 1040 ng·h/mL
- Cmax ([3]; Intravenous 1 mg/kg): 1740 ng/mL
- half-life ([3]; Intravenous 1 mg/kg): 1.8 h
- AUC(0-inf) ([3]; po, Gavage 5 mg/kg): 889 ng·h/mL
- AUC(0-t) ([3]; po, Gavage 5 mg/kg): 723 ng·h/mL
- Cmax ([3]; po, Gavage 5 mg/kg): 118 ng/mL
- Tmax ([3]; po, Gavage 5 mg/kg): 0.67 h
- half-life ([3]; po, Gavage 5 mg/kg): 7.08 h
- concentration at 1 h [4, 7]: 251 ng/g
- concentration at 4 h [4, 7]: 102 ng/g
- concentration at 8 h [4, 7]: 67.6 ng/g
- Kp [4]: 1 to 2.4
- Kp at 1 h [4]: 2.2
- Kp at 4 h [4]: 2.1
- Kp at 8 h [4]: 1.7
- concentration at 1 h [4, 8]: 112 ng/mL
- concentration at 4 h [4, 8]: 50.2 ng/mL
- concentration at 8 h [4, 8]: 41.3 ng/mL
Structure (SMILES): Cc1cc(N2CCCc3cc(Cl)sc3C2)cc(C)c1NC(=O)CC(C)(C)C [Compound 03044, N-(4-(2-chloro-4,5,6,8-tetrahydro-7H-thieno[2,3-c]azepin-7-yl)-2,6-dimethylphenyl)-3,3-dimethylbutanamide]
